Assay [1] deals with T1, Beta-secretase 1 (Homo sapiens, UniProt P56817). The assay is described as follows: Inhibition of human recombinant BACE1 after 60 mins by fluorescence assay.
Assay [2] concerns the target T1, Beta-secretase 1. The assay can be described thus: Inhibition of human recombinant BACE1 at 100 to 500 uM after 60 mins by fluorescence assay.
Assay [3] has as its target T1, Beta-secretase 1.
Description: Competitive inhibition of human recombinant BACE1 by Lineweaver-Burke plot analysis

Experimental findings from ChEMBL document CHEMBL1157685, “Biotransformation of isoimperatorin and imperatorin by Glomerella cingulata and beta-secretase inhibitory activity” (Bioorg Med Chem, 2010) are described below.

Broadly, the pIC50 is −log10 of the IC50, conventionally taken in molar units.

pIC50: −log10 of the molar value. Active and inactive are the calls of the source. No cut-off for these calls is given here.

T1 sequence (P56817 whole entry): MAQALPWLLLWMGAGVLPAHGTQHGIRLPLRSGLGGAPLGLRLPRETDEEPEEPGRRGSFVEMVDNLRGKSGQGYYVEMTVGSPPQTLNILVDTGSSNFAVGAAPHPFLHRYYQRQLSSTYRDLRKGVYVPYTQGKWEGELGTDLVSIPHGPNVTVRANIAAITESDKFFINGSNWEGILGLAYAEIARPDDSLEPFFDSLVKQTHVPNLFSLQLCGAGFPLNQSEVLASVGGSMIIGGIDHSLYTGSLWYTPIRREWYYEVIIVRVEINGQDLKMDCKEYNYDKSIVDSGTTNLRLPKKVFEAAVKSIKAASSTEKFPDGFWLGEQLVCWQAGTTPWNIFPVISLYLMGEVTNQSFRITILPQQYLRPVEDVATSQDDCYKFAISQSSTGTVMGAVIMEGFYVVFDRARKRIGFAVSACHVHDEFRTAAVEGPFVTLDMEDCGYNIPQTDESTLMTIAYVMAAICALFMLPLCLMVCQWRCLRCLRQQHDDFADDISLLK

For `COc1cc2occc2c(OCC=C(C)C)c1CCC(=O)O`, in assay [1], the negative logarithm of the IC50 (pIC50) was 3.69 and the inhibition result was “Dose-dependent effect”.

Regarding `O=c1ccc2cc3ccoc3c(O)c2o1`, the inhibition entry in assay [1] is “Dose-dependent effect”. In assay [2], the inhibition result was “inactive”.

For `CC(C)=CCOc1c2ccoc2cc2oc(=O)ccc12` [ISOIMPERATORIN], in assay [1], the pIC50 is 3.61 and the inhibition entry is “Dose-dependent effect”.

Consider `COC(=O)CCc1c(OC)cc2occc2c1OCC=C(C)C`, for which, in assay [1], the pIC50 was 4.79 and the inhibition entry was “Dose-dependent effect”.

Consider `CC(C)=CCOc1c(CCC(=O)O)c(O)cc2occc12`, for which, in assay [1], the pIC50 was 3.73 and the inhibition result is “Dose-dependent effect”.

As for `COC(=O)CCc1c(O)cc2occc2c1OCC=C(C)C`, in assay [1], the pIC50 is 4.52 and the inhibition result is “Dose-dependent effect”. The Kic in assay [3] was 11.3 µM.

Regarding `CC(C)=CCOc1c2occc2cc2ccc(=O)oc12` [PENTOSALEN], in assay [1], the pIC50 was 4.04 and the inhibition result is “Dose-dependent effect”.
